{
  "source": "patent US6476046B1",
  "about": "“Diazabicyclo[4.3.0]nonanes, and methods of use thereof” (Sepracor, Inc., priority 2000, dated 2002)",
  "key": {"[1]": {"target": "human opiate receptor μ (Homo sapiens, UniProt P35372)", "sequence (P35372 whole entry)": "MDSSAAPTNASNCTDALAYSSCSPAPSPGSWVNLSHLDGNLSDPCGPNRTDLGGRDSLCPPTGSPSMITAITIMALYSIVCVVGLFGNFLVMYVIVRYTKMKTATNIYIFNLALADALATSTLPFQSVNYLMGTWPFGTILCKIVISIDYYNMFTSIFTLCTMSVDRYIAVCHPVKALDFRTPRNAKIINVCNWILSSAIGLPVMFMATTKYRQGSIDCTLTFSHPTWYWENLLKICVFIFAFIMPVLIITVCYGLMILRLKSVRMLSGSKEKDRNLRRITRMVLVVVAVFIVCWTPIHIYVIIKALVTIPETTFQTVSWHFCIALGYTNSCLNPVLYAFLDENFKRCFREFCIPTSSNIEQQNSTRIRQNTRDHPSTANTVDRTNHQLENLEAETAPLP", "assay": "Radioligand binding assay, human opiate receptor μ", "source_text": "Another assay useful in the present invention concerns determining the ability of a ligand to bind to a biological receptor utilizing a technique well known in the art referred to as a radioligand binding assay. This assay accurately determines the specific binding of a radioligand to a targeted receptor through the delineation of its total and nonspecific binding components. Total binding is defined as the amount of radioligand that remains following the rapid separation of the radioligand bound in a receptor preparation (cell homogenates or recombinate receptors) from that which is unbound. The nonspecific binding component is defined as the amount of radioligand that remains following separation of the reaction mixture consisting of receptor, radioligand and an excess of unlabeled ligand. Under this condition, the only radioligand that remains represents that which is bound to components other that receptor. The specific radioligand bound is determined by subtracting the nonspecific from total radioactivity bound. For a specific example of radioligand binding assay for μ-opioid receptor, see Wang, J. B. et al. FEBS Letters 1994, 338, 217.\n(§1) Radioligand Binding Assays (IC50, μM)\n(§2) The radiobinding assays for human opiate receptor μ, κ and δ are conducted according the procedures outlined by Maguire et al. (Eur. Pharmacol. 1992, 213, 219)."}, "[2]": {"target": "human opiate receptor κ (Homo sapiens, UniProt P41145)", "sequence (P41145 whole entry)": "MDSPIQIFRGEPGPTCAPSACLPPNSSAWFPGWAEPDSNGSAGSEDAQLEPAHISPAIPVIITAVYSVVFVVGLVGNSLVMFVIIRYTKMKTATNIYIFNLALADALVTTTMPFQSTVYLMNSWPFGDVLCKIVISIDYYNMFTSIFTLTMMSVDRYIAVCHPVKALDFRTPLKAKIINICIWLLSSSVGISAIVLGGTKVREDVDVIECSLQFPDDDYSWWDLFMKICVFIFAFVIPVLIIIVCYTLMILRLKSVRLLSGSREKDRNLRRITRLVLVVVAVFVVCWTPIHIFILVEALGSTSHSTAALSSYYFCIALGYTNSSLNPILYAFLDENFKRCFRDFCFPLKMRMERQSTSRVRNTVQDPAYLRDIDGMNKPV", "assay": "Radioligand binding assay, human opiate receptor κ", "protocol": "as §1, §2"}, "[3]": {"target": "human opiate receptor δ (Homo sapiens, UniProt P41143)", "sequence (P41143 whole entry)": "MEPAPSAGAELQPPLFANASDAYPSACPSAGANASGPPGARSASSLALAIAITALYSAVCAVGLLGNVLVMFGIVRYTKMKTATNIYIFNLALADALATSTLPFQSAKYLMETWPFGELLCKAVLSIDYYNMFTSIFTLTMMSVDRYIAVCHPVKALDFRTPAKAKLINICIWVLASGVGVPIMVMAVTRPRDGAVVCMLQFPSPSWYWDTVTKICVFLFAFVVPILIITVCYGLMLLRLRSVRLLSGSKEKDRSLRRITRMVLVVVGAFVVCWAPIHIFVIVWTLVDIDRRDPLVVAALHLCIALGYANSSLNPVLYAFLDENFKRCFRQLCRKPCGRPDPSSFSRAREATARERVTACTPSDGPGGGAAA", "assay": "Radioligand binding assay, human opiate receptor δ", "protocol": "as §1, §2"}, "[4]": {"assay": "In vivo analgesia, tail flick model", "conditions": "Rattus norvegicus", "protocol": "(§3) Various experimental procedures, well known in the art, are useful in the present invention to assess the analgesic effect of compounds, such as the “tail flick” and “hot plate” tests. The “tail flick” test can be performed by applying a noxious thermal stimulus to the rat's tail and determining the time until the nociceptive tail flick occurs.\n(§4) In vivo Analgesia Experiments\nThe tail flick model was conducted according to D'Amour F. E. and Smith D. L. J. Pharmacol. Exp. Ther. 1941, 72, 74."}, "[5]": {"assay": "In vivo analgesia, hot plate test", "conditions": "Rattus norvegicus", "source_text": "as §3, §4"}, "[6]": {"conditions": "radioligand binding, human opiate receptor μ, read-out: μ (IC50)"}, "[7]": {"conditions": "radioligand binding, human opiate receptor κ, read-out: κ (IC50)"}, "[8]": {"conditions": "radioligand binding, human opiate receptor δ, read-out: δ (IC50)"}},
  "note": "Like-named read-outs stand apart in the source and are kept apart here.",
  "data": [
    {"compound": "O[C@@H](c1ccccc1)C12CN(CCc3ccccc3)CCC1CN(Cc1ccccc1)C2", "note": "(some centres unmarked) [Compound 11]", "values": [
      {"measurement": "IC50", "setting": "[1]; [6]", "value": "< 1000", "unit": "nM"},
      {"measurement": "IC50", "setting": "[2]; [7]", "value": "< 5", "unit": "µM"}
    ]},
    {"compound": "CCC(=O)N(CC12CN(CCc3ccccc3)CCC1CN(CCc1ccccc1)C2)c1ccccc1", "note": "(centres unmarked) [Compound 36]", "values": [
      {"measurement": "IC50", "setting": "[1]", "value": "< 10", "unit": "nM"},
      {"measurement": "IC50", "setting": "[2]", "value": "< 5", "unit": "µM"},
      {"measurement": "IC50", "setting": "[3]", "value": "< 1000", "unit": "nM"}
    ]},
    {"compound": "C[C@H](N(C(=O)C1CCC1)c1ccccc1)C12CN(CCc3ccccc3)CCC1CN(Cc1ccccc1)C2", "note": "(some centres unmarked) [Compound 32]", "values": [
      {"measurement": "IC50", "setting": "[1]", "value": "< 100", "unit": "nM"},
      {"measurement": "IC50", "setting": "[2]", "value": "< 5", "unit": "µM"},
      {"measurement": "IC50", "setting": "[3]", "value": "< 1000", "unit": "nM"}
    ]},
    {"compound": "COc1cccc(C(O)C23CN(CCc4ccccc4)CCC2CN(Cc2ccccc2)C3)c1", "note": "(centres unmarked) [Compound 14]", "values": [
      {"measurement": "IC50", "setting": "[1]; [6]", "value": "< 1000", "unit": "nM"}
    ]},
    {"compound": "CS(=O)(=O)N(CC12CN(CCc3ccccc3)CCC1CN(Cc1ccccc1)C2)c1ccccc1", "note": "(centres unmarked) [Compound 25]", "values": [
      {"measurement": "IC50", "setting": "[1]; [6]", "value": "< 1000", "unit": "nM"},
      {"measurement": "IC50", "setting": "[2]; [7]", "value": "< 10", "unit": "µM"}
    ]},
    {"compound": "CCC(=O)N(CC12CN(CCc3ccccc3)CCC1CN(Cc1ccccc1)C2)c1ccccc1", "note": "(centres unmarked) [Compound 23]", "values": [
      {"measurement": "IC50", "setting": "[1]; [6]", "value": "< 100", "unit": "nM"},
      {"measurement": "IC50", "setting": "[2]; [7]", "value": "< 5", "unit": "µM"},
      {"measurement": "IC50", "setting": "[3]; [8]", "value": "< 1000", "unit": "nM"}
    ]},
    {"compound": "CCC(=O)N(C[C@]12CN(CCc3ccccc3)CCC1CN(CCc1ccccc1)C2)c1ccccc1", "note": "(single isomer, unassigned) [Compound 38]", "values": [
      {"measurement": "IC50", "setting": "[1]; [6]", "value": "< 100", "unit": "nM"},
      {"measurement": "IC50", "setting": "[2]; [7]", "value": "< 5", "unit": "µM"},
      {"measurement": "IC50", "setting": "[3]; [8]", "value": "< 1000", "unit": "nM"},
      {"measurement": "ED50", "setting": "[4]", "value": 0.18, "unit": "mg/kg"},
      {"measurement": "ED50", "setting": "[5]", "value": 152, "unit": "mg/kg"}
    ]},
    {"compound": "CCC(=O)N(CC12CN(C)CC1CCN(CCc1ccccc1)C2)c1ccccc1", "note": "(centres unmarked) [Compound 42]", "values": [
      {"measurement": "IC50", "setting": "[1]; [6]", "value": "< 1000", "unit": "nM"}
    ]},
    {"compound": "CCC(=O)N(CC12CN(CCc3ccccc3)CCC1CN(S(C)(=O)=O)C2)c1ccccc1", "note": "(centres unmarked) [Compound 41]", "values": [
      {"measurement": "IC50", "setting": "[1]; [6]", "value": "< 1000", "unit": "nM"}
    ]},
    {"compound": "CCC(=O)N(C[C@@]12CN(CCc3ccccc3)CCC1CN(CCc1ccccc1)C2)c1ccccc1", "note": "(single isomer, unassigned) [Compound 37]", "values": [
      {"measurement": "IC50", "setting": "[1]; [6]", "value": "< 10", "unit": "nM"},
      {"measurement": "IC50", "setting": "[2]; [7]", "value": "< 1", "unit": "µM"},
      {"measurement": "IC50", "setting": "[3]; [8]", "value": "< 1000", "unit": "nM"},
      {"measurement": "ED50", "setting": "[4]", "value": 0.05, "unit": "mg/kg"},
      {"measurement": "ED50", "setting": "[5]", "value": 0.06, "unit": "mg/kg"}
    ]},
    {"compound": "O[C@H](c1ccccc1)C12CN(CCc3ccccc3)CCC1CN(Cc1ccccc1)C2", "note": "(some centres unmarked) [Compound 12]", "values": [
      {"measurement": "IC50", "setting": "[1]; [6]", "value": "< 1000", "unit": "nM"},
      {"measurement": "IC50", "setting": "[2]; [7]", "value": "< 5", "unit": "µM"}
    ]},
    {"compound": "CCC(=O)N(CC12CN(CCc3ccccc3)CCC1CN(C(C)=O)C2)c1ccccc1", "note": "(centres unmarked) [Compound 40]", "values": [
      {"measurement": "IC50", "setting": "[1]; [6]", "value": "< 1000", "unit": "nM"}
    ]},
    {"compound": "CCC(=O)N(c1ccccc1)C(C)C12CN(CCc3ccccc3)CCC1CN(Cc1ccccc1)C2", "note": "(centres unmarked) [Compound 31]", "values": [
      {"measurement": "IC50", "setting": "[1]", "value": "< 10", "unit": "nM"},
      {"measurement": "IC50", "setting": "[2]", "value": "< 5", "unit": "µM"},
      {"measurement": "IC50", "setting": "[3]", "value": "< 1000", "unit": "nM"}
    ]},
    {"compound": "C[C@@H](N(C(=O)C1CCC1)c1ccccc1)C12CN(CCc3ccccc3)CCC1CN(Cc1ccccc1)C2", "note": "(some centres unmarked) [Compound 33]", "values": [
      {"measurement": "IC50", "setting": "[1]", "value": "< 1000", "unit": "nM"},
      {"measurement": "IC50", "setting": "[2]", "value": "< 5", "unit": "µM"},
      {"measurement": "IC50", "setting": "[3]", "value": "< 5000", "unit": "nM"}
    ]}
  ]
}
